Measured values reported in US20240228491A1, “METHIONINE ADENOSYLTRANSFERASE INHIBITOR, PREPARATION METHOD THEREFOR AND APPLICATION THEREOF” (SCINNOHUB PHARMACEUTICAL CO., LTD., priority 2021, published 2024).

Columns and labels:
KP-4 cells = assay: Inhibitory activity test of KP-4 cells; type: cell-based; conditions: Homo sapiens, 144 h incubation, read-out: KP-4 cell inhibitory activity IC50
Description: On day 1, cell seeding: after digestion of the cells with trypsin, the cells were resuspended to 1*10^4/mL with RPMI1640 complete medium (HyClone Company, Cat. No. SH30809.01) supplemented with 10% FBS (Gibco, 10099141C), mixed evenly, and added into the 96-well plate at 100 μL/well. The plate was put back to the incubator for the adherent growth of cells. On day 2, the addition of the compounds to be tested: 100 μL of the complete medium containing the compounds (the concentration of the compound in the medium was formulated as follows: 3-fold gradient dilution from 60 μM, 10 concentration gradients in total) was added, incubated for 144 hours at 37° C., 5% CO2. On day 8, the cell culture plates were taken out from incubator and equilibrated to room temperature, excess medium was pipetted from the wells so that 50 μL of supernatant was retained, and 50 μL of CellCounting-Lite 2.0 (Nanjing Vazyme Biotech Co., Ltd., Cat. No. DD1101) reagent was added per well, and the cells were fully lysed by shaking at room temperature for 10 min, and incubated for 5 min to detect the fluorescence intensity.
(§1) % Inhibition=100−(signal of the well with the compound to be tested−signal of the well with only medium and free of cells)/(signal of the well with cells but without addition of the compound−signal of the well with only medium and free of cells)×100.
(§2) The log value of concentration was used as the X-axis and % Inhibition was used as the Y-axis, so as to fit the dose-effect curve and calculate the IC50 value using nonlinear regression (dose response−variable slope) in the analysis software GraphPad Prism 8.

DOHH-2 cells = assay: Inhibitory activity test of DOHH-2 cells; type: cell-based; conditions: Homo sapiens, 120 h incubation, CellTiter-Glo, read-out: DOHH-2 cell inhibitory activity IC50
Description: On day 1, cell seeding: cells were resuspended to the desired density with DMEM complete medium (Gibico, Cat. No. 10569010) supplemented with 10% FBS (Gibco, 10099141C), mixed evenly, and added into the 384-well plate at 30 μL/well with a cell density of 800/well. The compounds to be tested were added as follows: 30 nL of DMSO solution containing the compound (the concentration of the compound in which was formulated as: 3-fold gradient dilution from 10 mM, 10 concentration points in total) was added, incubated for 120 h at 37° C., 5% CO2. On day 6, the cells treated with compounds were removed and equilibrated to room temperature, 30 μL of CellTiter-Glo (Promega company, Cat. No. G7573) reagent was added per well, and the cells were fully lysed by shaking at room temperature, and then incubated in dark at 37° C., 5% CO2 for 30 min, to detect the fluorescence intensity.
% Inhibition=100−(signal of the well with the compound to be tested−signal of the well with only medium and free of cells)/(signal of the well with cells but without the addition of the compound−signal of the well with only medium and free of cells)×100.
as §2

HCT116 MTAP-/- cells = assay: Activity test of HCT116 MTAP gene homozygous deletion cells (CellTiter-Glo); type: cell-based; conditions: Homo sapiens, HCT-116, 120 h incubation, read-out: HCT116 MTAP-/- Cell IC50
Description: On day 1, cell seeding: after digestion of the cells with trypsin, the cells were resuspended to the desired density with the complete medium (RPMI-1640 supplemented with 10% FBS; the brand of FBS is EXCELL, Cat. No. FND500; the brand of RPMI-1640 is ATCC, Cat. No. 30-2001), mixed evenly, and added into the 96-well plate at 100 μL/well with a cell density of 1000-3000 cells per well. The plate was put back to the incubator for the adherent growth of cells. On day 2, the addition of the compounds to be tested: before the addition of the compounds, the cells were starved with serum-free medium for 4 h, then the complete medium containing the corresponding concentration of compounds was added thereto, and the cells were incubated at 37° C., 5% CO2 for 120 h. On day 7, the cell culture plates were taken out from incubator and equilibrated to room temperature. 50 μL of CellTiter-Glo (Promega Company, Cat. No. G7571) reagent was added per well, and the cells were fully lysed by shaking at room temperature for 2 min, and then incubated for another 60 min to detect the fluorescence intensity. Calculation formula:
as §1
The fitting dose-effect curve of the analysis software GraphPad Prism 5 was used to give IC50 values of the individual compounds against cellular activity.

MAT2a = MAT2a (Homo sapiens (Human), UniProt P31153); assay: MAT2a enzymatic activity test (colorimetric assay); type: biochemical; conditions: OD620, 150 min reaction, read-out: IC50 against MAT2a
Sequence of MAT2a (P31153 whole entry): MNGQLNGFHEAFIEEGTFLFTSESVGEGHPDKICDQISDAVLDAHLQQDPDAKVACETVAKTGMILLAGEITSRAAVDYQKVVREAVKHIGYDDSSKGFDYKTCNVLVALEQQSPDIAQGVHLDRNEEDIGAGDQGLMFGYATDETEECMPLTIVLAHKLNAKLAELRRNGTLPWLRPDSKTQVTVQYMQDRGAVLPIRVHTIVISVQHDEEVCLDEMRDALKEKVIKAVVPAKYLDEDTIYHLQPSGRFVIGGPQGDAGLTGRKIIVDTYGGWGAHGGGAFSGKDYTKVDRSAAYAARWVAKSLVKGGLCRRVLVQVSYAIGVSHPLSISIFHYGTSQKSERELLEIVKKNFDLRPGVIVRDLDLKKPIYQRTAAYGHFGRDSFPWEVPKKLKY
Description: The Colorimetric assay method was used to detect the IC50 value of the tested compounds on MAT2a.
The specific steps were as follows: The compounds having the test starling concentration of 1 μM or 10 μM were diluted into 10 concentration points in a 3-fold gradient. 250 nL of the solutions of the compounds to be tested with 10 different concentrations were taken and added into a 384 well plate for later use. 20 μg/mL of MAT2a enzyme solution was prepared with Assay buffer (50 mM Tris, 50 mM KCl, 10 mM MgCl2, 0.05% polyoxyethylene lauryl ether, pH 8.0). 15 μL of the MAT2a enzyme solution at 20 μg/mL was add into the wells of the compounds to be tested at different concentrations; and 15 μL of Assay buffer was added into the negative control well. An incubation was carried out for 15 minutes after shaking for mixing well. A mixed substrate solution (comprising 400 μM ATP and 600 μM L-Methionine) was prepared with Assay buffer. 10 μL of the mixed substrate solution was added to the positive control well, the compound to be tested well, and the negative control well, respectively, and the reaction began, for a reaction time of 150 min. Then, 50 μL of the reaction stop solution (BIOMOL Green™ Reagent Enzo lifesciences, Cargo No. BML-AK111-1000) was added to stop the reaction, followed by being centrifuged at 1000 rpm for 60 s and then being incubated for 15 min. OD620 was read and data were processed.
By using the log value of the concentration as the X-axis and the inhibition % as the Y-axis, the IC50 value of each compound against enzyme activity was obtained through employing the log(inhibitor) vs. response-Variable slope fitting dose-effect curve of the analysis software GraphPad Prism 5.

IC50 (KP-4 cells): 170 nM
IC50 (HCT116 MTAP-/- cells): 13.3 nM
IC50 (MAT2a): 16.1 nM
SMILES: COCCn1cc2cc(-c3c(N)c4ccc(C(F)(F)F)nc4n(-c4ccc(Cl)cc4)c3=O)ccc2n1 [Example 48]
IC50 (DOHH-2 cells): 518 nM
